Test results published in US8877707B2, “Inhibitors of HCV NS5A” (Presidio Pharmaceuticals, Inc., priority 2010, dated 2014).

These molecules were tested on HCV genotype 1b replicon in Huh 7 cells (assay: HCV replicon assay (1b_Huh-Luc/Neo-ET cell line, luciferase readout)). Details: Hepatitis C virus, Huh-7; HCV 1b replicon; read-out: Inhibition of HCV genotype 1b.
Type: cell-based
Outline: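 Huh 7 cells carrying a bicistronic genotype 1b luciferase replicon were treated with compound in triplicate the day after plating and incubated 72 h. Luciferase activity expressed as % of untreated control; EC50 from a four-parameter logistic fit, repeated several times.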

| SMILES | EC50 [nM] |
| --- | --- |
| COC(=O)N[C@@H](C)C(=O)N1CCC[C@H]1c1ncc(-c2ccc3cc(-c4ccc(-c5cnc([C@@H]6CCCN6C(=O)[C@H](NC(=O)OC)c6ccsc6)[nH]5)cc4)ccc3c2)[nH]1 [compound 464] | < 1 |
| COC(=O)N[C@H](C(=O)N1CCC[C@H]1c1ncc(-c2ccc3cc(-c4cc5[nH]c([C@@H]6CCCN6C(=O)[C@@H](NC(=O)OC)C6CCOCC6)nc5cc4F)ccc3c2)[nH]1)C1CCOCC1 [compound 702] | < 1 |
| CC[C@H](C)[C@H](NC(=O)OC)C(=O)N1CCC[C@H]1c1ncc(-c2ccc3cc(-c4ccc5nc([C@@H]6CCCN6C(=O)[C@@H](NC(=O)OC)[C@@H](C)OC)[nH]c5c4)ccc3c2)[nH]1 [compound 526] | < 1 |
| COC(=O)N[C@H](C(=O)N1CCC[C@H]1c1ncc(-c2ccc3nc(-c4ccc(-c5cnc([C@@H]6CCCN6C(=O)[C@H](NC(=O)OC)c6ccccc6)[nH]5)cc4)ccc3c2)[nH]1)[C@@H](C)O [compound 490] | < 1 |
| COC(=O)N[C@H](C(=O)N1CCN(C(=O)OC)C[C@H]1c1ncc(-c2ccc(-c3ccc4cc(-c5cnc([C@@H]6CCCN6C(=O)[C@H](NC(=O)OC6CCOCC6)c6ccccc6)[nH]5)ccc4n3)cc2)[nH]1)C(C)C [compound 472] | < 1 |
| COC(=O)N[C@@H](C(=O)N1CCC[C@H]1CNC(=O)c1cnc2cc(-c3ccc(-c4cnc([C@@H]5CCCN5C(=O)[C@H](NC(=O)OC)c5ccccc5)[nH]4)cc3)ccc2c1)c1ccccc1 [compound 553] | < 1 |
| COC(=O)N[C@H](C(=O)N1CCC[C@H]1C(=O)Nc1ccc(-c2ccc3cc(-c4cnc([C@@H]5CCCN5C(=O)[C@@H](NC(=O)OC)[C@@H](C)OC)[nH]4)ccc3c2)cc1)[C@@H](C)OC [compound 578] | < 1 |
| COC(=O)N[C@H](C(=O)N1CCC[C@H]1c1ncc(-c2ccc(-c3cc4ccc(-c5cnc([C@@H]6CCCN6C(=O)[C@H](NC(=O)OC)c6ccccc6)[nH]5)cc4cn3)cc2)[nH]1)[C@@H](C)OC [compound 483] | < 1 |
| CC[C@H](C)[C@H](NC(=O)OC)C(=O)N1CCC[C@H]1c1nc2ccc(-c3ccc4cc(-c5cnc([C@@H]6CCCN6C(=O)[C@H](COC)NC(=O)OC)[nH]5)ccc4c3)cc2[nH]1 [compound 514] | < 1 |
| COC(=O)N[C@H](C(=O)N1CCC[C@H]1c1nc2ccc(-c3ccc4cc(-c5cnc([C@@H]6CCCN6C(=O)[C@H](NC(=O)OC6CCOCC6)c6ccccc6)[nH]5)ccc4n3)cc2[nH]1)C(C)C [compound 509] | < 1 |
| COC(=O)N[C@H](C(=O)N1CCC[C@H]1C(=O)N[C@@H](C)c1ccc(-c2ccc3cc(-c4cnc([C@@H]5CCCN5C(=O)[C@@H](NC(=O)OC)C5CCOCC5)[nH]4)ccc3c2)cc1)C1CCOCC1 [compound 559] | < 1 |

Same assay, conditions: Hepatitis C virus; Table 1; genotype 1b replicon, Huh 7 cells, 72 h, luciferase; read-out: Inhibition of HCV genotype 1b

| SMILES | EC50 [nM] |
| --- | --- |
| COC(=O)N[C@H](C(=O)N1CCC[C@H]1c1ncc(-c2ccc(-c3ccc4cc(-c5c[nH]c([C@@H]6CCCN6C(=O)[C@@H](NC(=O)OC)C6CCOCC6)n5)ccc4c3)c(F)c2)[nH]1)C(C)C [compound 68] | < 1 |
| COC(=O)N[C@H](C(=O)N1CCC[C@H]1c1ncc(-c2ccc3cc(-c4ccc(-c5cnc([C@@H]6COCCN6C(=O)[C@H](NC(=O)OC)c6ccccc6)[nH]5)cc4)ccc3c2)[nH]1)C(C)C [compound 131] | < 1 |
| COC(=O)N[C@H](C(=O)N1CCC[C@H]1c1ncc(-c2ccc(-c3ccc4cc(-c5c[nH]c([C@@H]6CCCN6C(=O)[C@@H](NC(=O)OC)[C@@H](C)OC)n5)ccc4n3)cc2)[nH]1)C(C)C [compound 40] | < 1 |
| COC(=O)N[C@H](C(=O)N1CCC[C@H]1c1ncc(-c2ccc(-c3nc4cc(-c5cnc([C@@H]6CCCN6C(=O)[C@@H](NC(=O)OC)C6CC6)[nH]5)ccc4o3)cc2)[nH]1)C1CC1 [compound 239] | < 1 |
| COC(=O)N[C@H](C(=O)N1CCC[C@H]1c1nc(-c2ccc3nc(N4CCC(c5cnc([C@@H]6CCCN6C(=O)[C@@H](NC(=O)OC)C(C)C)[nH]5)CC4)ccc3c2)c[nH]1)C(C)C [compound 275] | < 1 |
| COC(=O)N[C@H](C(=O)N1CCC[C@H]1c1nc(-c2ccc3cc(-c4ccc(-c5cnc([C@@H]6CCCN6C(=O)[C@@H](NC(=O)OC)C6CCOCC6)[nH]5)cn4)ccc3c2)c[nH]1)C(C)C [compound 51] | < 1 |
| COC(=O)N[C@H](C(=O)N1CCC[C@H]1c1ncc(-c2ccc3cc(-c4ccc5nc([C@@H]6CCCN6C(=O)[C@@H](NC(=O)OC)C6CCCC6)[nH]c5c4)ccc3c2)[nH]1)C1CCCC1 [compound 218] | < 1 |
| COC(=O)N[C@H](C(=O)N1CCC[C@H]1c1nc2ccc(-c3ccc4cc(-c5cnc([C@@H]6CCCN6C(=O)[C@H](NC(=O)OC)c6ccccc6)[nH]5)ccc4c3)nc2[nH]1)C(C)C [compound 200] | < 1 |
| COC(=O)N[C@H](C(=O)N1CCC[C@H]1c1nc(-c2cnc3cc(-c4ccc(-c5cnc([C@@H]6CCCN6C(=O)[C@@H](NC(=O)OC)C(C)C)[nH]5)cn4)ccc3c2)c[nH]1)C(C)C [compound 74] | < 1 |
| COC(=O)N[C@H](C(=O)N1C[C@H](O)C[C@H]1c1ncc(-c2ccc(-c3ccc4cc(-c5cnc([C@@H]6CCCN6C(=O)[C@H](NC(=O)OC)c6ccccc6)[nH]5)ccc4n3)cc2)[nH]1)C(C)C [compound 148] | < 1 |
| COC(=O)N[C@H](C(=O)N1CCC[C@H]1c1ncc(-c2ccc(-c3cc4ccc(-c5cnc([C@@H]6CCCN6C(=O)[C@@H](NC(=O)OC)C6CCOCC6)[nH]5)cc4cn3)c(F)c2)[nH]1)C(C)C [compound 166] | < 1 |
| COC(=O)N[C@H](C(=O)N1CCC[C@H]1c1nc(-c2ccc3cc(-c4ccc(-c5cnc([C@@H]6CCCN6C(=O)[C@@H](NC(=O)OC)C(C)C)[nH]5)cn4)ccc3c2)c[nH]1)C(C)C [compound 13] | < 1 |
| COC(=O)N[C@H](C(=O)N1CCC[C@H]1c1nc2ccc(-c3cc4ccc(-c5cnc([C@@H]6CCCN6C(=O)[C@@H](NC(=O)OC)C6CCOCC6)[nH]5)cc4cn3)cc2[nH]1)C(C)C [compound 216] | < 1 |
| COC(=O)N[C@H](C(=O)N1CCC[C@H]1c1ncc(-c2ccc(-c3ccc4cc(-c5c[nH]c([C@@H]6CCCN6C(=O)[C@H](NC(=O)OC)c6ccccc6)n5)ccc4c3)cc2)[nH]1)C1CCOCC1 [compound 105] | < 1 |
| COC(=O)N[C@H](C(=O)N1CCC[C@H]1c1nc(-c2cnc3cc(-c4ccc(-c5cnc([C@@H]6CCCN6C(=O)[C@@H](NC(=O)OC)C6CCOCC6)[nH]5)cc4)ccc3c2)c[nH]1)C(C)C [compound 49] | < 1 |
| COC(=O)N[C@H](C(=O)N1CCC[C@H]1c1ncc(-c2ccc3cc(-c4ccc(-c5cnc([C@@H]6COCCN6C(=O)[C@@H](NC(=O)OC)C(C)C)[nH]5)cc4)ccc3c2)[nH]1)C(C)C [compound 139] | < 1 |
| COC(=O)N[C@H](C(=O)N1CCC[C@H]1c1ncc(-c2ccc(-c3cc4ccc(-c5c[nH]c([C@@H]6CCCN6C(=O)[C@H](NC(=O)OC)c6ccccc6)n5)cc4cn3)cc2)[nH]1)C1CCOCC1 [compound 101] | < 1 |
| COC(=O)N[C@H](C(=O)N1CCC[C@H]1c1ncc(-c2ccc(-c3ccc4cc(-c5c[nH]c([C@@H]6CCCN6C(=O)[C@H](NC(=O)OC)c6ccccc6)n5)ccc4n3)cc2)[nH]1)C1CCOCC1 [compound 90] | < 1 |

Same assay, conditions: Hepatitis C virus; Table 2; genotype 1b replicon, Huh 7 cells, 72 h, luciferase; read-out: Inhibition of HCV genotype 1b

| SMILES | EC50 [nM] |
| --- | --- |
| CCC(CC)[C@H](NC(=O)OC)C(=O)N1CCC[C@H]1c1ncc(-c2ccc3cc(-c4ccc5nc([C@@H]6COCCN6C(=O)[C@@H](NC(=O)OC)C(CC)CC)[nH]c5c4)ccc3c2)[nH]1 [compound 351] | < 1 |
